Data set [1] deals with T1, PRDX1 (Homo sapiens, UniProt Q06830).
T1 sequence (Q06830 1-199): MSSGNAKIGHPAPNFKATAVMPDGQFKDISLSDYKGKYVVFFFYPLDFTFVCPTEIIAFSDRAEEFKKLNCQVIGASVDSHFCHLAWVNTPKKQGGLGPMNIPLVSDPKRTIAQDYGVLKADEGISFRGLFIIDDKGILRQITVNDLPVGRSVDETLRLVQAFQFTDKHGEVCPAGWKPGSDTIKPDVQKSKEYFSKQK
The data set is described as follows: SPR with sodium palmitate. It counts as binding.

Data set [2] deals with T1, PRDX1. The data set is described as follows: SPR. It counts as binding.
The data set “crystal structure” deals with the molecule itself. Description: crystal structure.

The results in this text go back to paper PMC11724923 (Nature Communications, 2025).

Regarding `CCCCCCCCCCCCCCCC(=O)O` [PA, palmitic acid], the Kd (in general, the constant that tells how readily two partners part at equilibrium) on PRDX1 [1] was 75.3 ± 4.5 µM.
At PRDX1 [2], `O=C(/C=C/c1ccc(O)c(O)c1)O[C@H](Cc1ccc(O)c(O)c1)C(=O)O` [RA, rosmarinic acid] displayed a Kd of 0.3757 ± 0.0025 µM.

B1: PRDX1^C52SC83S (aa 1-175) (enzyme, human, UniProt Q06830 1-175, looked up)
chain: MSSGNAKIGHPAPNFKATAVMPDGQFKDISLSDYKGKYVVFFFYPLDFTFVSPTEIIAFSDRAEEFKKLNCQVIGASVDSHFSHLAWVNTPKKQGGLGPMNIPLVSDPKRTIAQDYGVLKADEGISFRGLFIIDDKGILRQITVNDLPVGRSVDETLRLVQAFQFTDKHGEVCPA
On to B1, for which the binding result in “crystal structure” was “binds”.
